Tests used:
[1] = Precipitation of Cloquintocet-mexyl hydrate in emulsified concentrate (EW) of Example One; type: physicochemical; details: EW of Table E1: Aromatic 200 15.3, n-butyl lactate 15.3, ATLOX 4914 1.4, Cloquintocet-mexyl 4.2, ATLAS G-5000 2.2, water 61.6 weight percent
Method: The Following Items where Mix Together (See Table E1). [table] The Cloquintocet-mexyl was dissolved into a mixture of Aromatic 200 and n-butyl lactate. The emulsifiers were then mixed into the mixture. Finally, water was added and the mixture was turned into a emulsified concentrate (EW) by mechanical stirring. Precipitation of Cloquintocet-mexyl hydrate was not observed.

[2] = Precipitation of Cloquintocet-mexyl hydrate from A200, BL or A200+BL solutions after addition of water (Example Two); type: physicochemical; design: key to Cloquintocet-mexyl hydrate precipitation: “P” means that Cloquintocet-mexyl hydrate precipitated from the mixture.; “S” means that Cloquintocet-mexyl hydrate did not precipitated from the mixture; details: about 10 weight percent water added, 4° C.
Method: CQC was dissolved into A200, BL, or a mixture of A200+BL. Thereafter, about 10 weight percent water was added to each sample based on the weight of the sample (A200+BL+CQC). Each sample was prepared at 4° C.

Precipitation of Cloquintocet-mexyl hydrate [1]: not observed
CQC content kept in solution when mixed with water ([2]; 50/50 mixture of A200 and BL): up to 14 weight percent
CQC content at which Cloquintocet-mexyl hydrate is kept in solution when mixed with water ([2]; A200(100%)): less than 7 weight percent
CQC content at which Cloquintocet-mexyl hydrate is kept in solution when mixed with water ([2]; BL(100%)): less than 7 weight percent
Cloquintocet-mexyl hydrate precipitation ([2]; CQC 3 wt %, BL 100%): S
Cloquintocet-mexyl hydrate precipitation ([2]; CQC 4 wt %, A200 100%): S
Cloquintocet-mexyl hydrate precipitation ([2]; CQC 5 wt %, BL 100%): S
Cloquintocet-mexyl hydrate precipitation ([2]; CQC 6 wt %, A200 100%): S
Cloquintocet-mexyl hydrate precipitation ([2]; CQC 7 wt %, BL 100%): P
Cloquintocet-mexyl hydrate precipitation ([2]; CQC 8 wt %, A200 100%): P
Cloquintocet-mexyl hydrate precipitation ([2]; CQC 9 wt %, BL 100%): P
Cloquintocet-mexyl hydrate precipitation ([2]; CQC 10 wt %, A200 100%): P
Cloquintocet-mexyl hydrate precipitation ([2]; CQC 11 wt %, BL 100%): P
Cloquintocet-mexyl hydrate precipitation ([2]; CQC 12 wt %, A200 (12%) + BL (88%)): P
Cloquintocet-mexyl hydrate precipitation ([2]; CQC 12 wt %, A200 (50%) + BL (50%)): S
Cloquintocet-mexyl hydrate precipitation ([2]; CQC 12 wt %, A200 (88%) + BL (12%)): P
Cloquintocet-mexyl hydrate precipitation ([2]; CQC 13 wt %, BL 100%): P
Cloquintocet-mexyl hydrate precipitation ([2]; CQC 14 wt %, A200 (12%) + BL (88%)): P
Cloquintocet-mexyl hydrate precipitation ([2]; CQC 14 wt %, A200 (50%) + BL (50%)): S
Cloquintocet-mexyl hydrate precipitation ([2]; CQC 14 wt %, A200 (88%) + BL (12%)): P
Cloquintocet-mexyl hydrate precipitation ([2]; CQC 15.5 wt %, A200 100%): P
Cloquintocet-mexyl hydrate precipitation ([2]; CQC 15.5 wt %, A200 (12%) + BL (88%)): P
Cloquintocet-mexyl hydrate precipitation ([2]; CQC 15.5 wt %, A200 (50%) + BL (50%)): P
Cloquintocet-mexyl hydrate precipitation ([2]; CQC 15.5 wt %, A200 (88%) + BL (12%)): P
Cloquintocet-mexyl hydrate precipitation ([2]; CQC 15.5 wt %, BL 100%): P
SMILES: CCCCCC(C)OC(=O)COc1ccc(Cl)c2cccnc12 (stereo not shown) [CQC, Cloquintocet-mexyl]
